Laboratory results reported in ChEMBL document CHEMBL1201861, “Genomics of Drug Sensitity in Cancer screening data, Wellcome Trust Sanger Institute”.

Columns and labels:
LB1047-RCC = assay: cells; format: functional, cell-based, Homo sapiens; details: Homo sapiens, LB1047-RCC
Description: SANGER: Inhibition of human LB1047-RCC cell growth in a cell viability assay.

BL-70 = assay: SANGER: Inhibition of human BL-70 cell growth in a cell viability assay.; format: functional, cell-based; details: Homo sapiens, BL-70
NCI-H1155 = assay: cells; format: functional, cell-based, Homo sapiens; details: Homo sapiens, NCI-H1155
Description: SANGER: Inhibition of human NCI-H1155 cell growth in a cell viability assay.

EVSA-T = assay: cells; format: functional, cell-based, Homo sapiens; details: Homo sapiens, EVSA-T;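 note: growth inhibition of EVSA-T cells, read out with a cell viability assay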
Description: SANGER: Inhibition of human EVSA-T cell growth in a cell viability assay.

NCI-H719 = assay: cells; format: functional, cell-based, Homo sapiens; details: Homo sapiens, NCI-H719;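 note: growth inhibition of the cultured cell line, read out with a viability assay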
Description: SANGER: Inhibition of human NCI-H719 cell growth in a cell viability assay.

BB49-HNC = assay: cells; format: functional, cell-based, Homo sapiens; details: Homo sapiens, BB49-HNC;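 note: cell viability assay read-out, reported as inhibition of BB49-HNC cell growth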
Description: SANGER: Inhibition of human BB49-HNC cell growth in a cell viability assay.

NOS-1 = assay: cells; format: functional, cell-based, Homo sapiens; details: Homo sapiens, NOS-1;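 note: growth inhibition of the human NOS-1 cell line, read out with a cell viability assay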
Description: SANGER: Inhibition of human NOS-1 cell growth in a cell viability assay.

NCI-H1650 = assay: cells; format: functional, cell-based, Homo sapiens; details: Homo sapiens, NCI-H1650;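 note: growth inhibition of human NCI-H1650 cells measured by a cell viability assay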
Description: SANGER: Inhibition of human NCI-H1650 cell growth in a cell viability assay.

A101D = assay: cells; format: functional, cell-based, Homo sapiens; details: Homo sapiens, A101D;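 note: growth inhibition of the cell line, measured with a viability assay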
Description: SANGER: Inhibition of human A101D cell growth in a cell viability assay.

NCI-H1355 = assay: cells; format: functional, cell-based, Homo sapiens; details: Homo sapiens, NCI-H1355;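 note: growth inhibition of human NCI-H1355 cells, read out by a cell viability assay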
Description: SANGER: Inhibition of human NCI-H1355 cell growth in a cell viability assay.

NCI-H2141 = assay: cells; format: functional, cell-based, Homo sapiens; details: Homo sapiens, NCI-H2141;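 note: growth inhibition of human NCI-H2141 cells, read out with a cell viability assay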
Description: SANGER: Inhibition of human NCI-H2141 cell growth in a cell viability assay.

EB-3 = assay: cells; format: functional, cell-based, Homo sapiens; details: Homo sapiens, EB-3;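 note: human EB-3 cells, growth inhibition read out via a cell viability assay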
Description: SANGER: Inhibition of human EB-3 cell growth in a cell viability assay.

GI-ME-N = assay: cells; format: functional, cell-based, Homo sapiens; details: Homo sapiens, GI-ME-N;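 note: growth inhibition of human GI-ME-N cells, read out with a cell viability assay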
Description: SANGER: Inhibition of human GI-ME-N cell growth in a cell viability assay.

KURAMOCHI = assay: cells; format: functional, cell-based, Homo sapiens; details: Homo sapiens, KURAMOCHI;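 note: growth inhibition of KURAMOCHI cells, read out with a cell viability assay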
Description: SANGER: Inhibition of human KURAMOCHI cell growth in a cell viability assay.

DU-4475 = assay: cells; format: functional, cell-based, Homo sapiens; details: Homo sapiens, DU-4475
Description: SANGER: Inhibition of human DU-4475 cell growth in a cell viability assay.

LB647-SCLC = assay: cells; format: functional, cell-based, Homo sapiens; details: Homo sapiens, LB647-SCLC;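 note: cell growth inhibition, read out by a viability assay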
Description: SANGER: Inhibition of human LB647-SCLC cell growth in a cell viability assay.

RS4-11 = assay: cells; format: functional, cell-based, Homo sapiens; details: Homo sapiens, RS4-11;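 note: growth inhibition of RS4-11 cells, read out by a cell viability assay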
Description: SANGER: Inhibition of human RS4-11 cell growth in a cell viability assay.

NCI-H69 = assay: cells; format: functional, cell-based, Homo sapiens; details: Homo sapiens, NCI-H69;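 note: growth inhibition of the cell line, read out with a cell viability assay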
Description: SANGER: Inhibition of human NCI-H69 cell growth in a cell viability assay.

WSU-NHL = assay: cells; format: functional, cell-based, Homo sapiens; details: Homo sapiens, WSU-NHL;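 note: growth inhibition of human WSU-NHL cells, read out with a cell viability assay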
Description: SANGER: Inhibition of human WSU-NHL cell growth in a cell viability assay.

LAN-6 = assay: cells; format: functional, cell-based, Homo sapiens; details: Homo sapiens, LAN-6;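 note: growth inhibition of LAN-6 cells, determined with a cell viability assay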
Description: SANGER: Inhibition of human LAN-6 cell growth in a cell viability assay.

NCI-H1770 = assay: cells; format: functional, cell-based, Homo sapiens; details: Homo sapiens, NCI-H1770;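 note: growth inhibition of NCI-H1770 cells determined with a viability readout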
Description: SANGER: Inhibition of human NCI-H1770 cell growth in a cell viability assay.

NCI-H82 = assay: cells; format: functional, cell-based, Homo sapiens; details: Homo sapiens, NCI-H82;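 note: growth inhibition of NCI-H82 cells, measured with a cell viability readout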
Description: SANGER: Inhibition of human NCI-H82 cell growth in a cell viability assay.

HD-MY-Z = assay: cells; format: functional, cell-based, Homo sapiens; details: Homo sapiens, HD-MY-Z;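 note: growth inhibition of HD-MY-Z cells, read out with a cell viability assay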
Description: SANGER: Inhibition of human HD-MY-Z cell growth in a cell viability assay.

Row | Compound | IC50 (LB1047-RCC) [nM] | IC50 (BL-70) [nM] | IC50 (NCI-H1155) [nM] | IC50 (EVSA-T) [nM] | IC50 (NCI-H719) [nM] | IC50 (BB49-HNC) [nM] | IC50 (NOS-1) [nM] | IC50 (NCI-H1650) [nM] | IC50 (A101D) [nM] | IC50 (NCI-H1355) [nM] | IC50 (NCI-H2141) [nM] | IC50 (EB-3) [nM] | IC50 (GI-ME-N) [nM] | IC50 (DU-4475) [nM] | IC50 (LB647-SCLC) [nM] | IC50 (RS4-11) [nM] | IC50 (NCI-H69) [nM] | IC50 (WSU-NHL) [nM] | IC50 (LAN-6) [nM] | IC50 (NCI-H1770) [nM] | also measured
1 | COc1cc2ncn(-c3cc(OCc4ccccc4S(C)(=O)=O)c(C#N)s3)c2cc1OC [GSK-319347A] | > 5000 | > 5000 | > 5000 | > 5000 | > 5000 | > 5000 | > 5000 | > 5000 | > 5000 | > 5000 | > 5000 | > 5000 | > 5000 | > 5000 | > 5000 | > 5000 | > 5000 | > 5000 | > 5000 | > 5000 | IC50 (KURAMOCHI): > 5000 nM; IC50 (NCI-H82): > 5000 nM; IC50 (HD-MY-Z): > 5000 nM
2 | Cc1ccc(-c2c(C(=O)CCl)n(CCCO)c3ncnc(N)c23)cc1 | > 4000 | > 4000 | > 4000 | 2400 | > 4000 | > 4000 | > 4000 | > 4000 | 3830 | > 4000 | > 4000 | > 4000 | 2520 | > 4000 | > 4000 | > 4000 | > 4000 | > 4000 | > 4000 | > 4000 | IC50 (KURAMOCHI): > 4000 nM; IC50 (NCI-H82): > 4000 nM; IC50 (HD-MY-Z): 2500 nM
3 | OCCCNc1cc(-c2ccnc(Nc3cccc(Cl)c3)n2)ccn1 | 28.4 | 30.1 | > 256 | 135 | > 256 | 96.3 | 19.6 | > 256 | 20.5 | 24.9 | 102 | 64.8 | 105 | 140 | > 256 | 69.6 | > 256 | > 256 | 149 | > 256 | IC50 (KURAMOCHI): 59.8 nM; IC50 (NCI-H82): > 256 nM; IC50 (HD-MY-Z): 60.2 nM
4 | CC[C@H](CO)Nc1nc(NCc2ccccc2)c2ncn(C(C)C)c2n1 [SELICICLIB] | > 16000 | > 16000 | > 16000 | > 16000 | > 16000 | > 16000 | > 16000 | > 16000 | > 16000 | > 16000 | > 16000 | > 16000 | > 16000 | > 16000 | > 16000 | > 16000 | > 16000 | > 16000 | > 16000 | > 16000 | IC50 (NCI-H82): > 16000 nM; IC50 (HD-MY-Z): > 16000 nM
5 | COc1cc2ncn(-c3cc(OCc4ccccc4C(F)(F)F)c(C(N)=O)s3)c2cc1OC [GW843682X] | 25.4 | 8.55 | 86.8 | 237 | > 256 | > 256 | 16.6 | > 256 | 11.3 | 11.9 | 159 | > 256 | 88.3 | 80 | 18.9 | 12.8 | 181 | > 256 | 139 | > 256 | IC50 (KURAMOCHI): 50.1 nM; IC50 (NCI-H82): 15.2 nM; IC50 (HD-MY-Z): 66.3 nM
6 | N[C@@H](CSC(c1ccccc1)(c1ccccc1)c1ccccc1)C(=O)O [S-TRITYL-L-CYSTEINE] | 2600 | 547 | 3800 | 3400 | > 5120 | > 5120 | 970 | > 5120 | 1730 | 928 | 4360 | > 5120 | 2280 | 1510 | > 5120 | 1300 | 3190 | > 5120 | 3690 | > 5120 | IC50 (KURAMOCHI): > 5120 nM; IC50 (NCI-H82): 1200 nM; IC50 (HD-MY-Z): 2240 nM
